In US20240174690A1, “ANNULATED 2-AMINO-3-CYANO THIOPHENES AND DERIVATIVES FOR THE TREATMENT OF CANCER” (BOEHRINGER INGELHEIM INTERNATIONAL GMBH, priority 2021, published 2024):

Tested on: Caco-2 cell monolayers
Assay: Caco-2 assay (permeability PappAB, PappBA, efflux ratio)
Type: in vitro ADME
Conditions: 10 μM test compound, pH 7.4
How it was run: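 Bidirectional permeability (apical-to-basolateral and reverse) through polarized Caco-2 monolayers, BSA 0.25% on each side, 37 °C. Donor and receiver sampled at 0-90 min after 25-30 min preincubation, analysed by HPLC/MS/MS. Apparent permeabilities derived from transfer rate normalised to area and t=0 donor concentration; ER taken as PappBA over PappAB.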

## C[C@H](Oc1cc(-n2ccc(C(=O)N[C@H]3CCOC3)n2)nc(-c2noc3c2CCC[C@@]32CCCc3sc(N)c(C#N)c32)n1)[C@@H]1CCCN1C [II-193]
Apical to basolateral
  Caco PappAB: 3.7 ×10⁻⁶ cm/s
Efflux ratio PappBA/PappAB
  Caco ER: 8.1
